From patent US12569532B2, “Brain function regulating agent, and food or beverage product containing same” (NITTA GELATIN INC., priority 2019, dated 2026)
Where two headings read alike, the source gives them in different places. Where a SMILES comes first, the peptide text is derived from it. [ ]: non-standard residue; d: D form. Hyp = O=C(O)[C@@H]1C[C@@H](O)CN1

What was measured:
[1] = test system: cerebellar granule cells (CGC); conditions: Wistar, rat, 6 days
Description: (§1) 15 to 25-week-old male and female Wistar rats were provided by purchase from CREA Japan, Inc. Thereafter, the rats were reared under the following conditions: the temperature was 23±2° C., the relative humidity was 55±10%, the lighting cycle was 12 hours, the light period started at 7:00 and ended at 19:00, and the rats were fed with a solid feed (“CE-2” (trade name) manufactured by CREA Japan, Inc) and allowed to freely access drinking water. Under the same conditions as described above, the rats were mated to obtain 7-day-old rats. Further, 3 to 8-day-old Wistar rats were provided by purchase from CREA Japan, Inc.
(§2) The Wistar rats were reared to the age of 7 to 9 days under the above-described conditions, and cerebella were then excised from these rats, and dispersed by the below-described method using the dispersion solutions shown in Table 4 (liquids I to V). In this way, dispersions containing granule cells and other cerebral nerve cells (hereinafter, these cells are also referred to collectively as “cerebellar granule cells (CGC)”) from the cerebella. The cerebellar granule cells (CGC) are cerebral nerve cells. Thereafter, the CGC contained in the dispersions was cultured. […] The method for preparing the cerebellar granule cells (CGC) is as follows.
(§3) First, ten of the 7 to 9-day-old rats were decapitated, and cerebella were excised in the clean bench, and then formed into minced paste with a razor after removal of unnecessary tissues, blood vessels, chorionic membranes and the like. Liquid I was added to the paste to give a suspension, and the suspension was centrifuged at 1,000 rpm for 30 seconds to obtain a first separate liquid containing a supernatant and a cell group. The supernatant was removed from the first separate liquid, liquid II pre-warmed to 37° C. in a thermostatic bath was then added to the remaining cell group little by little, and the mixture was stirred, transferred into a 50 mL medium bottle, and further stirred at 37° C. for 15 minutes to perform tissue digestion with trypsin.
(§4) Next, liquid IV was added to the medium bottle to deactivate the trypsin, and the mixture was centrifuged at 1,000 rpm for 30 seconds to obtain a second separate liquid containing a supernatant and a cell group. The supernatant was removed from the second separate liquid, and a small amount of liquid III was then added to the remaining cell group with a Pasteur pipette to disperse the cell group. Thereafter, the mixture was left standing for 15 minutes to obtain a third separate liquid containing a supernatant and a cell group, and the supernatant was taken into liquid V. To the cell group remaining in the third separate liquid, a small amount of liquid III was added to redisperse the cell group. Thereafter, the mixture was left standing for 5 to 10 minutes to obtain a fourth separate liquid containing a supernatant and a cell group, and the supernatant was taken into liquid V containing the supernatant of the third separate liquid.
(§5) Liquid V containing the supernatant of the third separate liquid and the supernatant of the fourth separate liquid was centrifuged at 1,000 rpm for 5 minutes to obtain a fifth separate liquid containing a supernatant and a cell group. The supernatant was removed from the fifth separate liquid, a basal medium (BME: Basal Medium Eagle manufactured by Sigma-Aldrich Co. LLC) was then added to the remaining cell group, and the mixture was stirred to obtain a mixed liquid containing cerebellar granule cells (CGC) and BME. Thereafter, the mixed liquid was stained with a trypan Blue solution with a concentration of 0.4 mass %, and the number of the stained cells and the viability thereof were measured.

[2] = test system: cerebellar granule cells (CGC); assay: Evaluation Test 2: viability of primary-cultured CGC by MTT assay (differentiation promoting action); conditions: for Viability (%): KCl 15 mM, MTT day 7, percent of control sample with KCl 25 mM
Description: as §1, §2, §3, §4, §5

[3] = test system: cerebellar granule cells (CGC); conditions: Wistar, rat, 6 days; remark: listed apart in the source
Description: Next, K+5 mM serum (+) BME was added to the mixed liquid in such a manner that the cell density of living cells was 1.2×10^5 cells/mL, and the mixture was suspended to obtain a culture sample. The culture sample was seeded at 0.766 mL per well in a 12-well plate pre-coated with poly-L-lysin (PLL) with a concentration of 50 μg/mL, and was cultured in an incubator environment of CO2 with a concentration of 5 vol % at 37° C.
On day 1 after the start of culture, to each well was added cytosine β-D-arabinofuranoside (AraC) to a final concentration of 10 μM for the purpose of suppressing growth of non-neuronal cells while maintaining only CGC. Further, in the below-described control sample, KCl was added to a final concentration of 25 mM. In other samples (samples containing the peptides or amino acids shown in Tables 5 to 7 below), KCl was added with an adjustment made to a final concentration of 15 mM.
Specifically, the percent ratio of the number of living cells in each sample to the number of living cells in the control sample having a KCl concentration of 25 mM was determined, and subjected to statistical processing to evaluate significance of the differentiation promoting action on CGC. […]

rats = conditions: when transferred into the cerebrospinal fluid, NPL 2; cited from earlier work
[4] = test system: PC12 cells derived from a rat adrenal pheochromocytoma; conditions: PTL 2; cited from earlier work

## O=C1NCC(=O)N2C[C@H](O)C[C@@H]12 [C-OG]
[1]; 0.1 μM
  Viability (%): 57.8%
[1]; 1 μM
  Viability (%): 63.2%
[1]; 10 μM
  Viability (%): 54.2%
[1]; 100 μM
  Viability (%): 50.1%
[1]; 1000 μM
  Viability (%): 62.7%

## NCC(=O)N1CCC[C@H]1C(=O)N1C[C@H](O)C[C@H]1C(=O)O [GPO] (H-Gly-Pro-[Hyp]-OH)
[2]; 0.1 μM added days 1 and 4
  Viability (%): 56.3%
[2]; 1 μM added days 1 and 4
  Viability (%): 58.4%
[2]; 10 μM added days 1 and 4
  Viability (%): 59.0%
[2]; 100 μM added days 1 and 4
  Viability (%): 55.8%
[2]; 1000 μM added days 1 and 4
  Viability (%): 61.5%

## CN[C@H](CC(=O)O)C(=O)O [NMDA, N-methyl-D-aspartic acid]
[2]; Rattus norvegicus, 168 h
  viability at 100 µM: 93.4%

## N[C@@H](CCC(=O)O)C(=O)N1C[C@H](O)C[C@H]1C(=O)NCC(=O)O [EOG, Glu-Hyp-Gly] (H-Glu-[Hyp]-Gly-OH; N-terminus and C-terminus assumed)
[3]; 3 μM
  Viability (%): 67.2%
[3]; 7 μM
  Viability (%): 72.7%
[1]; 0.1 μM
  Viability (%): 69.9%
[1]; 100 μM
  Viability (%): 74.4%
[1]; 1000 μM
  Viability (%): 77.7%

## IGF-1: listed in Table 5 only, not explained in the text
[2]; 100 ng/mL added days 1 and 4
  Viability (%): 67.1%

## N[C@@H](CCC(=O)O)C(=O)O [Glutamic acid, glutamic acid]
[2]; Rattus norvegicus, 168 h
  viability at 10 µM: 58.1%
  viability at 100 µM: 52.4%
  viability at 1000 µM: 42.4%

## NCC(=O)N1CCC[C@H]1C(=O)O [GP] (H-Gly-Pro-OH; N-terminus and C-terminus assumed)
[2]; 0.1 μM added days 1 and 4
  Viability (%): 48.4%
[2]; 1 μM added days 1 and 4
  Viability (%): 61.2%
[2]; 10 μM added days 1 and 4
  Viability (%): 65.7%
[2]; 100 μM added days 1 and 4
  Viability (%): 63.4%
[2]; 1000 μM added days 1 and 4
  Viability (%): 72.2%

## BDNF: brain-derived neurotrophic factor, Reference Example
[2]; 100 ng/mL added days 1 and 4
  Viability (%): 76.6%

## O=C(O)CC[C@@H]1NC(=O)[C@@H]2C[C@@H](O)CN2C1=O [C-EO]
[1]; 0.1 μM
  Viability (%): 51.3%
[1]; 1 μM
  Viability (%): 52.0%
[1]; 10 μM
  Viability (%): 64.8%
[1]; 100 μM
  Viability (%): 65.0%
[1]; 1000 μM
  Viability (%): 69.3%

## N[C@@H](CCC(=O)N[C@@H](CS)C(=O)NCC(=O)O)C(=O)O [Glutathione, glutathione]
[2]; 0.01 μM added days 1 and 4
  Viability (%): 73.9%
[2]; 0.1 μM added days 1 and 4
  Viability (%): 63.5%
[2]; 1 μM added days 1 and 4
  Viability (%): 63.5%
[2]; 10 μM added days 1 and 4
  Viability (%): 63.6%
[2]; 100 μM added days 1 and 4
  Viability (%): 60.0%
[2]; 1000 μM added days 1 and 4
  Viability (%): 67.1%

## N[C@@H](CCC(=O)O)C(=O)N1C[C@H](O)C[C@H]1C(=O)O [EO] (H-Glu-[Hyp]-OH; N-terminus and C-terminus assumed)
[1]; 0.1 μM
  Viability (%): 52.9%
[1]; 1 μM
  Viability (%): 54.8%
[1]; 10 μM
  Viability (%): 86.8%
[1]; 100 μM
  Viability (%): 81.2%
[1]; 1000 μM
  Viability (%): 86.7%

## C[C@H](N)C(=O)N1C[C@H](O)C[C@H]1C(=O)O [AO] (H-Ala-[Hyp]-OH; N-terminus and C-terminus assumed)
[1]; 0.1 μM
  Viability (%): 55.1%
[1]; 1 μM
  Viability (%): 57.0%
[1]; 10 μM
  Viability (%): 66.1%
[1]; 100 μM
  Viability (%): 64.7%
[1]; 1000 μM
  Viability (%): 65.9%

## O=C(O)[C@@H]1C[C@@H](O)CN1C(=O)[C@@H]1CCCN1 [PO, Pro-Hyp] (H-Pro-[Hyp]-OH; N-terminus and C-terminus assumed)
rats
  antidepressant effect: exhibited an antidepressant effect
[1]; 0.1 μM
  Viability (%): 52.6%
[1]; 1 μM
  Viability (%): 51.8%
[1]; 10 μM
  Viability (%): 76.3%
[1]; 100 μM
  Viability (%): 72.9%
[1]; 1000 μM
  Viability (%): 74.0%

## O=C(O)CNC(=O)[C@@H]1C[C@@H](O)CN1 [OG] (H-[Hyp]-Gly-OH)
[2]; 0.1 μM added days 1 and 4
  Viability (%): 54.5%
[2]; 1 μM added days 1 and 4
  Viability (%): 61.8%
[2]; 10 μM added days 1 and 4
  Viability (%): 77.6%
[2]; 100 μM added days 1 and 4
  Viability (%): 72.8%
[2]; 1000 μM added days 1 and 4
  Viability (%): 71.1%

## Gly-Pro-Ala
[4]
  neurogenesis promoting action: has a neurogenesis promoting action

## O=C1[C@@H]2C[C@@H](O)CN2C(=O)[C@@H]2CCCN12 [C-PO]
[1]; 0.1 μM
  Viability (%): 55.7%
[1]; 1 μM
  Viability (%): 58.4%
[1]; 10 μM
  Viability (%): 73.2%
[1]; 100 μM
  Viability (%): 70.6%
[1]; 1000 μM
  Viability (%): 68.4%

## O=C1N[C@@H](Cc2cnc[nH]2)C(=O)N2CCC[C@@H]12 [C-HP]
[1]; 10 μM
  Viability (%): 65.1%
[1]; 100 μM
  Viability (%): 63.9%
[1]; 1000 μM
  Viability (%): 69.2%

## O=C1NCC(=O)N2CCC[C@@H]12 [C-GP]
[1]; 10 μM
  Viability (%): 51.2%
[1]; 100 μM
  Viability (%): 46.4%
[1]; 1000 μM
  Viability (%): 53.3%
